Assay [1] deals with apple trees. The experiment in a line: Field trial in apple trees under heat, light and water stress (sunburn, fruit size, yield). The following applies: apples. It counts as in vivo. The method, then:
Field trials were conducted in commercial fields and orchards in Chile during the 2011-12 and 2012-13 growing seasons. The results were evaluated by measuring specific fruit parameters affected by abiotic stress including fruit diameter, fruit number, and amount of damage from heat or sunburn. The plants evaluated were apples and tomatoes. The plants in the trials received a conventional application of pesticides, under normal application conditions. The heat and light stress were considered important from the beginning of fruit development. High temperatures ranged between 30-35° C. ambient temperature measured by conventional methods in the shade from December to harvest.
Foliage and fruit were evaluated before and after treatments at regular intervals for signs of phytotoxicity. […] Furthermore, no signs of uncontrolled disease incidence was detected.
SUNCROPS, SUNCROPS PLUS, SCREEN DUO, and ECLIPSE are commercial treatments which are used in the management of abiotic stress. Kaolins and calcium carbonates reduce stress by reflecting the ultraviolet, visible and infrared rays, reducing the impact of excessive heat and light in photosynthesis and other essential plant cellular processes. The dicarboxylic acids, such as the azalaic acid in SUNCROPS PLUS, physiologically act by interacting on lipo-oxygenation processes and production of reactive oxygen species. (Greenberg et al. “The lipid whisker model of the structure of oxidized cell membranes.” J. Biol. Chem. 283, 2385-96, 2008)
The apple trees received six applications of each formulation at the dosages indicated in the “Dosage” column of Table 1. Tomato plants received biweekly treatments from fruit formation to fruit harvest (a total of 6 applications).
The different stages of fruit development correspond to (1) cell division (2) pit hardening (stone fruits only) (3) cell expansion and (4) fruit ripening. The start of the tests was done during the cell division phase. This phase corresponds to the period with increased susceptibility to damage from high temperatures, and can be correlated with increase in fruits having reduced size and decrease in the number of fruits per plant as a consequence of the abiotic stress due to high temperatures.
Early season heat, light and/or water stress can prevent cell division that occurs during phase (1) of the development of apple fruits.
Testing with apples was conducted in Rancagua, Sixth Region; Chile. The tree fruit load was standardized at a value of about 220 fruits per tree; ±3%, thus eliminating the variability generated by different loads of fruit on the trees. To assess damage from sunburn related to heat and water stress, 100% of the apples were harvested from the tree in each test unit and were classified according to the following scheme shown in Table 2.
Table 2. Classification scheme based on visual evaluation of the fruit • 0 No visible presence of sunburn • 1 Presence of slight yellowing of the skin (<7% of the surface of the fruit); exportable commercial fruit. • 2 Presence of strong yellowing of the skin (>7% of the surface of the fruit); exportable commercial fruit. • 3 Presence of moderate sunburn skin, no commercial fruit, suitable only for juice or related industry. • 4 Presence of significant sunburn skin, no harvestable fruit unmarketable.
The variables measured were: fruit diameter (mm), percentage of sunburn (number of fruits belonging to grades 1 or 2), size of the fruit (measured as weight in grams). The total fruit yield of the tree and the commercial yield (amount of commercial grade fruits, grades 1 or 2) was also measured.

The test system of assay [2] is tomato plants. The experiment in a line: Field trial in tomato plants under heat, light and water stress (sunburn, yield, soluble solids). Format: in vivo. The note with it: 6 applications.
Experimental: The study was conducted on tomatoes in a commercial growing field in Botalcura, Talca, Chile. […]
For each two meters plot, plants were harvested during six test runs. The fruit were first evaluated visually: fruits with red color as adequate for industrial processing, fruits with green color as inadequate and inappropriate for industrial processing and fruits damaged by the sun as disposable. […]

In assay [1] (Rancagua, Chile, six applications at Table 1 dosage, about 220 fruits per tree), `O=CCCCCCCCC(=O)O` [ONA, 9-Oxononanoic acid] registered a Fruit diameter of 40.63 mm. Moreover, the “Effectiveness in protection of fruit compared with commercial treatments” value in assay [1] (cell division stage) is reported as “more effective than commercial treatments”. For the same compound, in assay [1] (commercial grade fruits (grades 1 or 2), six applications), the Yield commercial worked out at 49.7 kg/tree. The compound also gave a Size in assay [1] (fruit weight, six applications) of 146 g/apple. This compound displayed a Yield total in assay [1] (six applications) of 53.9 kg/tree. Besides, the “Percent fruit of grades 1 or 2” value in assay [1] (visual sunburn grading scheme of Table 2, six applications) was determined as 88.25%. The same compound displayed a Soluble solids in assay [2] of 6.4 °Brix.
